In general, Kd refers to a measure of binding affinity in units of concentration.

Bridge positions count the residues as written; N and C are the ends. Square brackets hold non-standard residues; d marks the D form. Peptide text beside a SMILES is read from it. R5 = C=CCCC[C@@](C)(N)C(=O)O

The target of this test is T1, MDM2 (1-125) (Homo sapiens, UniProt Q00987).
T1 construct: cleaved MDM2 (1-125) was purified to ~90% purity; GST (N, cleaved yes); made in house; host or cells: Escherichia coli BL21(DE3)
Put plainly: Competitive fluorescence polarization titration against FAM-labeled 12/1 peptide. Format: binding. The note with it: read-out: Dissociation constant (Kd). Here is the method:
[P] is the protein concentration (MDM2), [L] is the labeled peptide concentration, r is the
Apparent Kd values were determined for a variety of molecules via competitive fluorescence […]
triplicate. Curve-fitting was carried out using Prism 4.0 (GraphPad).
(In general: Polarisation of emitted light reports the rotation of a fluorescent probe.)

T1 sequence (Q00987 1-125): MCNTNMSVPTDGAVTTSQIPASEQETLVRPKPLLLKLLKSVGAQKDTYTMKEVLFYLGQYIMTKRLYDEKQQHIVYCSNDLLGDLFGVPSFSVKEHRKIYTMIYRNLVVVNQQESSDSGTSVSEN

Turning to `CC(=O)N[C@H](C(=O)N[C@@H](CO)C(=O)N[C@@H](Cc1ccccc1)C(=O)N[C@]1(C)CCCC=CCCC[C@](C)(C(=O)N[C@@H](CC(C)C)C(=O)N[C@@H](CC(C)C)C(=O)N2CCC[C@H]2C(=O)N[C@@H](CCC(=O)O)C(=O)N[C@@H](CC(N)=O)C(=O)N[C@@H](Cc2ccccc2)C(N)=O)NC(=O)[C@H](Cc2c[nH]c3ccccc23)NC(=O)[C@H](Cc2ccc(O)cc2)NC(=O)[C@H](CCC(=O)O)NC1=O)[C@@H](C)O` [YS-1] (Ac-TSF[R5]EYW[R5]LLPENF-NH2; staple 4-8), the Kd was 9.9 ± 1.5 nM. Consider `CC(=O)N[C@H](C(=O)N[C@@H](CO)C(=O)N[C@@H](Cc1ccccc1)C(=O)N[C@]1(C)CCCC=CCCC[C@](C)(C(=O)N[C@@H](CC(C)C)C(=O)N[C@@H](CC(C)C)C(=O)N2CCC[C@H]2C(=O)N[C@@H](CCC(=O)O)C(=O)N[C@@H](CC(N)=O)C(=O)N[C@@H](Cc2ccc(O)cc2)C(N)=O)NC(=O)[C@H](Cc2c[nH]c3ccccc23)NC(=O)[C@H](Cc2ccc(O)cc2)NC(=O)[C@H](CCC(=O)O)NC1=O)[C@@H](C)O` [YS-2] (Ac-TSF[R5]EYW[R5]LLPENY-NH2; staple 4-8), for which the Kd amounted to 7.4 ± 1.5 nM. Next, `CC(=O)N[C@H](C(=O)N[C@@H](CO)C(=O)N[C@@H](Cc1ccccc1)C(=O)N[C@]1(C)CCCC=CCCC[C@](C)(C(=O)N[C@@H](CC(C)C)C(=O)N[C@@H](CC(C)C)C(=O)N2CCC[C@H]2C(=O)N[C@@H](CCC(=O)O)C(=O)N[C@@H](CC(N)=O)C(N)=O)NC(=O)[C@H](Cc2c[nH]c3ccccc23)NC(=O)[C@H](Cc2ccc(O)cc2)NC(=O)[C@H](CCC(=O)O)NC1=O)[C@@H](C)O` [YS-3] (Ac-TSF[R5]EYW[R5]LLPEN-NH2; staple 4-8): 36.1 ± 2.9 nM; `CC(=O)N[C@H](C(=O)N[C@@H](CO)C(=O)N[C@@H](Cc1ccccc1)C(=O)N[C@]1(C)CCCC=CCCC[C@](C)(C(=O)N[C@@H](CC(C)C)C(=O)N[C@@H](CC(C)C)C(=O)N2CCC[C@H]2C(=O)N[C@@H](CCC(=O)O)C(=O)N[C@@H](CC(N)=O)C(=O)N[C@@H](C)C(N)=O)NC(=O)[C@H](Cc2c[nH]c3ccccc23)NC(=O)[C@H](Cc2ccc(O)cc2)NC(=O)[C@H](CCC(=O)O)NC1=O)[C@@H](C)O` [YS-4] (Ac-TSF[R5]EYW[R5]LLPENA-NH2; staple 4-8): 27.7 ± 1.3 nM. The figure for `CC(=O)N[C@H](C(=O)N[C@@H](CO)C(=O)N[C@@H](Cc1ccccc1)C(=O)N[C@]1(C)CCCC=CCCC[C@](C)(C(=O)N[C@@H](CC(C)C)C(=O)N[C@@H](CC(C)C)C(=O)N[C@@H](CO)C(=O)N[C@@H](CCC(=O)O)C(=O)N[C@@H](CC(N)=O)C(=O)N[C@@H](Cc2ccccc2)C(N)=O)NC(=O)[C@H](Cc2c[nH]c3ccccc23)NC(=O)[C@H](Cc2ccc(O)cc2)NC(=O)[C@H](CCC(=O)O)NC1=O)[C@@H](C)O` [YS-5] (Ac-TSF[R5]EYW[R5]LLSENF-NH2; staple 4-8) is 11.6 ± 0.9 nM; for `CC(=O)N[C@H](C(=O)N[C@@H](CO)C(=O)N[C@@H](Cc1ccccc1)C(=O)N[C@]1(C)CCCC=CCCC[C@](C)(C(=O)N[C@@H](CC(C)C)C(=O)N[C@@H](CC(C)C)C(=O)N[C@@H](CO)C(=O)N[C@@H](CCC(=O)O)C(=O)N[C@@H](CC(N)=O)C(=O)N[C@@H](Cc2ccc(O)cc2)C(N)=O)NC(=O)[C@H](Cc2c[nH]c3ccccc23)NC(=O)[C@H](Cc2ccc(O)cc2)NC(=O)[C@H](CCC(=O)O)NC1=O)[C@@H](C)O` [YS-6] (Ac-TSF[R5]EYW[R5]LLSENY-NH2; staple 4-8) it is 8.8 ± 0.6 nM.

These data come from paper PMC5515508, “Benzene Probes in Molecular Dynamics Simulations Reveal Novel Binding Sites for Ligand Design” (The Journal of Physical Chemistry Letters, 2016).
